Laboratory results reported in US20250206732A1, “COMPOUNDS AND METHODS FOR THE TARGETED DEGRADATION OF KRAS” (Arvinas Operations, Inc., priority 2022, published 2025).

Target: T1, AsPC-1 HiBiT-KRASG12D (Homo sapiens, UniProt P01116, G12D)
T1 construct: insert the HiBiT tag onto the N-terminus of one or more of the endogenous KRAS alleles; endogenous in cells; host or cells: AsPC-1 (ATCC CRL-1682), CRISPR-Cas9 knock-in clone, one tagged allele
Assay: HiBiT degradation assay (G12D), AsPC-1 HiBiT-KRASG12D cells
Type: cell-based
Settings: 24 hours treatment; for Dmax: ASPC1, AsPC-1 HiBiT-KRASG12D cells, maximum degradation observed; for DC50: AsPC-1 HiBiT-KRASG12D cells, HiBiT luminescence
Text: Reagents. […] SW1573 cells are homozygous for the G12C mutation in KRAS, AsPC-1 cells are homozygous for the G12D mutation, and SW620 cells are homozygous for the G12V mutation. […] For degradation assays, 384 well plates were used. Alamar blue was purchased from ThermoFisher scientific (A50101) and used according to manufacturer instructions. The Nano-Glo® HiBiT Lytic Detection System and Nano-Glo® HiBiT Blotting System were purchased from Promega (#N3050 and #N2410) and used according to manufacturer instructions.
To create the AsPC-1 HiBiT-KRASG12D cell line, CRISPR-Cas9 was used to insert the HiBiT tag onto the N-terminus of one or more of the endogenous KRAS alleles. […] After knock-in of the tag, individual clones were isolated by single cell dilution and screened for HiBiT insertion by PCR. […] This clone was used in further studies.
HiBiT degradation assays (G12C and G12D). […] All assays were performed in triplicate. Cells were treated with compounds for 24 hours at 37° C. in an incubator containing 5% CO2. Following treatment, alamar blue was used to determine if any compounds led to a loss in cell viability after 24 hours. The 10× alamar blue reagent was added to a final concentration of 1× as recommended by the manufacturer and cells were returned to the incubator for 4 hours. Plates were then allowed to equilibrate to room temperature and fluorescence was measured using a Perkin-Elmer EnVision. After completion of the fluorescence read, the liquid from each well was removed and the cells were washed with PBS. The Nano-Glo® HiBiT detection reagent was prepared according to the manufacturer's instructions and added to each well after the PBS wash was removed. Following incubation at room temperature for 45 minutes, the luminescence was read using the ultra-sensitive luminescence aperture on the Envision instrument.
Data analysis. Fluorescence values from the alamar blue treatment were normalized to the DMSO-only control for each compound titration.

T1 sequence (P01116 1-188 isoform P01116-2 G12D): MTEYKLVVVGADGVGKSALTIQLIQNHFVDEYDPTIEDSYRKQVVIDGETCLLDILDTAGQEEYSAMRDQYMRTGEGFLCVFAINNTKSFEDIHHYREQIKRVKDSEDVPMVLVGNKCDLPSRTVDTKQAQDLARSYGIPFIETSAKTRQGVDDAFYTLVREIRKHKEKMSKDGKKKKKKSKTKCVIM

## CCc1cccc2cc(O)cc(-c3ncc4c(N5CC6CCC(C5)N6)nc(OCCN5C[C@@H]6CN(c7cc([C@H](C(=O)N8C[C@H](O)C[C@H]8C(=O)N[C@@H](C)c8ccc(-c9scnc9C)cc8)C(C)C)on7)C[C@H]6C5)nc4c3F)c12 (relative stereo) [Compound 77, (2S,4R)-1-[(2R*)-2-{3-[(3aR,6aR)-5-{2-[(4-{3,8-diazabicyclo[3.2.1]octan-3-yl}-7-(8-ethyl-3-hydroxynaphthalen-1-yl)-8-fluoropyrido[4,3-d]pyrimidin-2-yl)oxy]ethyl}-octahydropyrrolo[3,4-c]pyrrol-2-yl]-1,2-oxazol-5-yl}-3-methylbutanoyl]-4-hydroxy-N-[(1S)-1-[4-(4-methyl-1,3-thiazol-5-yl)phenyl]ethyl]pyrrolidine-2-carboxamide]
  Dmax: 80 to 100%
  DC50: < 600 nM

## CCc1cccc2cc(O)cc(-c3ncc4c(N5CC6CCC(C5)N6)nc(OCCN5C[C@@H]6CN(c7cc([C@@H](C(=O)N8C[C@H](O)C[C@H]8C(=O)N[C@@H](C)c8ccc(-c9scnc9C)cc8)C(C)C)on7)C[C@H]6C5)nc4c3F)c12 (relative stereo) [Compound 78, (2S,4R)-1-[(2R*)-2-{3-[(3aR,6aR)-5-{2-[(4-{3,8-diazabicyclo[3.2.1]octan-3-yl}-7-(8-ethyl-3-hydroxynaphthalen-1-yl)-8-fluoropyrido[4,3-d]pyrimidin-2-yl)oxy]ethyl}-octahydropyrrolo[3,4-c]pyrrol-2-yl]-1,2-oxazol-5-yl}-3-methylbutanoyl]-4-hydroxy-N-[(1S)-1-[4-(4-methyl-1,3-thiazol-5-yl)phenyl]ethyl]pyrrolidine-2-carboxamide]
  Dmax: 20 to 60%
  DC50: 1000 to 3000 nM

## CCc1cccc2cc(O)cc(-c3ncc4c(N5CC6CCC(C5)N6)nc(OCCN5C[C@@H]6CN(c7cc(C(C(=O)N8C[C@H](O)C[C@H]8C(=O)N[C@@H](C)c8ccc(-c9scnc9C)cc8)C(C)C)on7)C[C@@H]6C5)nc4c3F)c12 (relative stereo) [Compound 80, (2S,4R)-1-[(2R*)-2-{3-[(3aR,6aS)-5-{2-[(4-{3,8-diazabicyclo[3.2.1]octan-3-yl}-7-(8-ethyl-3-hydroxynaphthalen-1-yl)-8-fluoropyrido[4,3-d]pyrimidin-2-yl)oxy]ethyl}-octahydropyrrolo[3,4-c]pyrrol-2-yl]-1,2-oxazol-5-yl}-3-methylbutanoyl]-4-hydroxy-N-[(1S)-1-[4-(4-methyl-1,3-thiazol-5-yl)phenyl]ethyl]pyrrolidine-2-carboxamide]
  Dmax: 80 to 100%
  DC50: < 600 nM

## CCc1cccc2cc(O)cc(-c3ncc4c(N5CC6CCC(C5)N6)nc(OCCN5CCC(CC6CN(c7cc(C(C(=O)N8C[C@H](O)C[C@H]8C(=O)N[C@@H](C)c8ccc(-c9scnc9C)cc8)C(C)C)on7)C6)CC5)nc4c3F)c12 (relative stereo) [Compound 82, (2S,4R)-1-[(2R*)-2-(3-{3-[(1-{2-[(4-{3,8-diazabicyclo[3.2.1]octan-3-yl}-7-(8-ethyl-3-hydroxynaphthalen-1-yl)-8-fluoropyrido[4,3-d]pyrimidin-2-yl)oxy]ethyl}piperidin-4-yl)methyl]azetidin-1-yl}-1,2-oxazol-5-yl)-3-methylbutanoyl]-4-hydroxy-N-[(1S)-1-[4-(4-methyl-1,3-thiazol-5-yl)phenyl]ethyl]pyrrolidine-2-carboxamide]
  Dmax: 20 to 60%
  DC50: 600 to 1000 nM

## C#Cc1c(F)ccc2cc(O)cc(-c3ncc4c(N5CC6CCC(C5)N6)nc(OCCN5CCC6(CC5)CN(c5cc([C@@H](C(=O)N7C[C@H](O)C[C@H]7C(=O)N[C@@H](C)c7ccc(-c8ccnn8C)cc7)C(C)C)on5)C6)nc4c3F)c12 (relative stereo) [Compound 84, (2S,4R)-1-[(2R*)-2-[3-(7-{2-[(4-{3,8-diazabicyclo[3.2.1]octan-3-yl}-7-(8-ethynyl-7-fluoro-3-hydroxynaphthalen-1-yl)-8-fluoropyrido[4,3-d]pyrimidin-2-yl)oxy]ethyl}-2,7-diazaspiro[3.5]nonan-2-yl)-1,2-oxazol-5-yl]-3-methylbutanoyl]-4-hydroxy-N-[(1S)-1-[4-(1-methyl-1H-pyrazol-5-yl)phenyl]ethyl]pyrrolidine-2-carboxamide]
  Dmax: 60 to 80%
  DC50: 1000 to 3000 nM

## C#Cc1c(F)ccc2cc(O)cc(-c3ncc4c(N5CC6CCC(C5)N6)nc(OCCN5CCC(COc6cc([C@H](C(=O)N7C[C@H](O)C[C@H]7C(=O)N[C@@H](C)c7ccc(-c8ccnn8C)cc7)C(C)C)on6)CC5)nc4c3F)c12 (relative stereo) [Compound 85, (2S,4R)-1-[(2R*)-2-{3-[(1-{2-[(4-{3,8-diazabicyclo[3.2.1]octan-3-yl}-7-(8-ethynyl-7-fluoro-3-hydroxynaphthalen-1-yl)-8-fluoropyrido[4,3-d]pyrimidin-2-yl)oxy]ethyl}piperidin-4-yl)methoxy]-1,2-oxazol-5-yl}-3-methylbutanoyl]-4-hydroxy-N-[(1S)-1-[4-(1-methyl-1H-pyrazol-5-yl)phenyl]ethyl]pyrrolidine-2-carboxamide]
  Dmax: 80 to 100%
  DC50: < 600 nM

## C#Cc1c(F)ccc2cc(O)cc(-c3ncc4c(N5CC6CCC(C5)N6)nc(OCCN5CCC(COc6cc([C@@H](C(=O)N7C[C@H](O)C[C@H]7C(=O)N[C@@H](C)c7ccc(-c8ccnn8C)cc7)C(C)C)on6)CC5)nc4c3F)c12 (relative stereo) [Compound 86, (2S,4R)-1-[(2R*)-2-{3-[(1-{2-[(4-{3,8-diazabicyclo[3.2.1]octan-3-yl}-7-(8-ethynyl-7-fluoro-3-hydroxynaphthalen-1-yl)-8-fluoropyrido[4,3-d]pyrimidin-2-yl)oxy]ethyl}piperidin-4-yl)methoxy]-1,2-oxazol-5-yl}-3-methylbutanoyl]-4-hydroxy-N-[(1S)-1-[4-(1-methyl-1H-pyrazol-5-yl)phenyl]ethyl]pyrrolidine-2-carboxamide]
  Dmax: 80 to 100%
  DC50: 1000 to 3000 nM

## CCc1cccc2cc(O)cc(-c3ncc4c(N5CC6CCC(C5)N6)nc(OCCN5CCC6(CC5)CN(c5cc([C@H](C(=O)N7C[C@H](O)C[C@H]7C(=O)NCc7ccc(-c8scnc8C)cc7)C(C)C)on5)C6)nc4c3F)c12 (relative stereo) [Compound 98, (2S,4R)-1-[(2R*)-2-[3-(7-{2-[(4-{3,8-diazabicyclo[3.2.1]octan-3-yl}-7-(8-ethyl-3-hydroxynaphthalen-1-yl)-8-fluoropyrido[4,3-d]pyrimidin-2-yl)oxy]ethyl}-2,7-diazaspiro[3.5]nonan-2-yl)-1,2-oxazol-5-yl]-3-methylbutanoyl]-4-hydroxy-N-{[4-(4-methyl-1,3-thiazol-5-yl)phenyl]methyl}pyrrolidine-2-carboxamide]
  Dmax: 80 to 100%
  DC50: < 600 nM

## CCc1cccc2cc(O)cc(-c3ncc4c(N5CC6CCC(C5)N6)nc(OCCN5CCC6(CC5)CN(c5cc([C@@H](C(=O)N7C[C@H](O)C[C@H]7C(=O)NCc7ccc(-c8scnc8C)cc7)C(C)C)on5)C6)nc4c3F)c12 (relative stereo) [Compound 99, (2S,4R)-1-[(2R*)-2-[3-(7-{2-[(4-{3,8-diazabicyclo[3.2.1]octan-3-yl}-7-(8-ethyl-3-hydroxynaphthalen-1-yl)-8-fluoropyrido[4,3-d]pyrimidin-2-yl)oxy]ethyl}-2,7-diazaspiro[3.5]nonan-2-yl)-1,2-oxazol-5-yl]-3-methylbutanoyl]-4-hydroxy-N-{[4-(4-methyl-1,3-thiazol-5-yl)phenyl]methyl}pyrrolidine-2-carboxamide]
  Dmax: 20 to 60%
  DC50: > 3000 nM

## CCc1cccc2cc(O)cc(-c3ncc4c(N5CC6CCC(C5)N6)nc(OC[C@@]56CCCN5[C@H](COC(=O)N5CCN(c7cc([C@H](C(=O)N8C[C@H](O)C[C@H]8C(=O)N[C@@H](C)c8ccc(-c9scnc9C)cc8)C(C)C)on7)CC5)CC6)nc4c3F)c12 (relative stereo) [Compound 107, [(3R*,7aR**)-7a-{[(4-{3,8-diazabicyclo[3.2.1]octan-3-yl}-7-(8-ethyl-3-hydroxynaphthalen-1-yl)-8-fluoropyrido[4,3-d]pyrimidin-2-yl)oxy]methyl}-hexahydro-1H-pyrrolizin-3-yl]methyl 4-{5-[(2R***)-1-[(2S,4R)-4-hydroxy-2-{[(1S)-1-[4-(4-methyl-1,3-thiazol-5-yl)phenyl]ethyl]carbamoyl}pyrrolidin-1-yl]-3-methyl-1-oxobutan-2-yl]-1,2-oxazol-3-yl}piperazine-1-carboxylate]
  Dmax: 80 to 100%
  DC50: < 600 nM
